# Measurements: US9248171B2, “Immunogenic peptides and their use in transplantation” (IMCYSE SA, priority 2008, dated 2016)
# Marks after values point to notes of the source that are not given here.
# Tests used:
# [1] = test system: Bm12 mouse skin allograft; assay: Rejection of Bm12 skin graft (MHC class II mismatch) in pre-immunized C57B1/6 mice; format: in vivo; conditions: 3 subcutaneous administrations in CFA/IFA at fortnight intervals
# Excerpt: The Bm12 mice constitute a variant of the C57B1/6 mice in which a spontaneous mutation has occurred in the I-Ab locus. This mutation consists of 3 amino acid substitutions in a stretch of 5 amino acids and thereby generates a limited MHC class II mismatch between Bm12 mice and C57B1/6 wild type mice. This mismatch is nevertheless sufficient as to elicit rejection of Bm12 mouse skin allograft.
# The 3 substituted amino acids are Ile67Phe, Arg70Gln and Thr71Lys located in the third hypervariable region of the beta chain. A synthetic peptide encompassing these residues was made and has the sequence: PEFLEQKRA (SEQ ID. NO: 10). This peptide was modified according to the invention by incorporation of a thioreductase consensus sequence, resulting in the exemplary immunogenic peptide CGHCPEFLEQKRA (SEQ ID. NO: 11).
# Cytotoxic CD4+ regulatory T cells towards the modified peptide of SEQ ID. NO: 11 are elicited in C57B1/6 mice by 3 subcutaneous administration of the peptide in CFA/IFA given at fortnight intervals. Such mice are then grafted with the skin of Bm12 mice.
# [2] = test system: APC (antigen-presenting cells); assay: Apoptosis of peptide-loaded APC (Annexin V binding) induced by CD4+ T cells from immunized mice (Dby peptides); format: cell-based, C57B1/6 mice; conditions: 10 μg peptide SC in CFA then IFA; APC loaded with SEQ ID. NO: 5 or SEQ ID. NO: 6
# Protocol: Groups of C57BL/6 female mice were immunized with 10 μg of peptide of SEQ ID. NO: 6 emulsified in CFA (complete Freund's adjuvant) for the first SC (subcutaneous) injection and in IFA (incomplete Freund's adjuvant) for the two subsequent immunizations. The spleen of such mice was retrieved 10 days after the last immunization and CD4+ T cells were obtained by cell sorting using magnetic beads.
# These CD4+ T cells were assayed in vitro for their capacity to induce apoptosis of APC (antigen-presenting cells). Thus, spleen cells of naïve C57B1/6 mice were deprived of CD4+ T cells by magnetic bead sorting and used as APC. Such APC were loaded with peptides of either SEQ ID. NO: 5 or of SEQ ID. NO: 6 by incubation for 16 h at room temperature. The cells were then washed to eliminate residual free peptides.
# [3] = test system: heterotopic male heart transplant; assay: Heterotopic male heart transplant in pre-immunized syngeneic female mice; format: in vivo, C57B1/6 mice; conditions: 3 subcutaneous injections at fortnight intervals in CFA/IFA
# Excerpt: To establish the proof of concept that cytolytic regulatory CD4+ T cells of the present invention can prevent rejection of a vascularized organ, the model of heterotopic heart transplantation is used. This method is well known in the art, as described for instance in Kadner A et al, European Journal of Cardio-thoracic Surgery (2000) 17: 474-481. Briefly, the method consists in abdominal implantation of the heart in a non-working setting, namely the heart is vascularized but not supporting the circulation. This allows long-term follow-up of the graft and multiple biopsies without killing the experimental animal.
# Hearts from C57BL/6 males are grafted using such technique in the abdomen of syngeneic females. The rejection process, which is mediated by expression of H-Y-derived antigens in both MHC class I and MHC class II determinants, is mainly due to the circulation of recipient's specific CD4+ T cells that are activated by recognition of alloantigen-derived peptides by graft endothelial cells. Such CD4+ T cells produce IL-2 and IFN-gamma, driving more inflammation and providing help for the maturation of specific CD8+ T cells.
# C57B1/6 female mice are pre-immunized before receiving the male allograft with peptides of either SEQ ID NO:5, SEQ ID NO:6 or a sham peptide. This is carried out by 3 subcutaneous injections of peptides made at fortnight intervals in either CFA/IFA. Thereafter, all mice receive a heterotopic male heart transplant.
# [4] = test system: male C57B1/6 skin allograft; assay: Skin graft rejection, male skin onto pre-immunized syngeneic female mice (naive mice); format: in vivo, C57B1/6 mice; conditions: for Rejection rate Day 10 / Rejection rate Day 20: 3 SC injections, rejected mice/mice, rejection = more than 50% of graft surface necrotic; for Effect of pre-immunization on skin graft rejection (in words): pre-immunization in either CFA/IFA or alum
# Protocol: One of the most studied models of graft rejection is skin grafting between syngeneic animals of different sex. Thus, the […] contains a number of genes, in particular the Dby gene, which encodes a minor histocompatibility antigen that elicits strong CD4+ T cell activation and chronic rejection in females. […] T cell epitopes from the Dby antigen have been described and selected as shown in Example 1 (peptide of SEQ ID. NO: 5). A synthetic peptide of SEQ ID. NO: 6 was prepared. Groups of 3 female C57B1/6 mice (H-2b haplotype) were made for testing the capacity of modified peptides of SEQ ID NO:1 to elicit tolerance to the skin allograft. Where applicable, pre-immunization was carried out by 3 subcutaneous injections of peptides containing either the natural epitope or its modified counterpart. Injections were made at fortnight intervals in either CFA/IFA or alum. Groups were therefore as follows: • Group 1: skin allograft without preimmunization • Group 2: skin autograft • Group 3: preimmunization with peptide of SEQ ID. NO: 6 emulsified in CFA (first immunization) and IFA for second and third immunization) • Group 4: same as in Group 3, but with alum as an adjuvant • Group 5: same as in Group 3, but using the natural peptide of SEQ ID. NO: 5 All these mice, except for Group 2 mice, received a male C57B1/6 skin allograft of 1 cm2, either directly (Group 1) or 2 weeks after the last immunization for Groups 3, 4 and 5. Group 2 mice received and autograft. Rejection rate was evaluated at day 10 and 20 and judged effective if more than 50% of the graft surface was necrotic.
Sequence,Rejection of Bm12 skin graft after preimmunization [1],APC apoptosis (surface binding of Annexin V) induced by CD4+ T cells of mice immunized with the peptide [2],"Graft findings (cellular infiltration, endothelitis, chronic vascular lesions) [3]",Outcome of transplanted heart after pre-immunization [3],Rejection rate Day 10 ([4]; pre-immunization in CFA/IFA),Rejection rate Day 20 ([4]; pre-immunization in CFA/IFA),Rejection rate Day 10 ([4]; pre-immunization in alum),Rejection rate Day 20 ([4]; pre-immunization in alum),Effect of pre-immunization on skin graft rejection (in words) [4]
CGHCPEFLEQKRA (redox motif + mutated version of I-Ab locus) [SEQ ID. NO: 11],reject the B12m graft unless they are preimmunized with the peptide of SEQ ID. NO: 11,–,–,–,–,–,–,–,–
CHGCFNSNRANSS (redox motif + T cell epitope of Dby antigen) [SEQ ID. NO: 6],–,induced into apoptosis,"absence of cellular infiltration, of signs of endothelitis and of chronic vascular lesions",tolerate the graft,0/3,0/3,0/3,0/3,fully prevents graft rejection
"FNSNRANSS (T cell epitope of Dby antigen) [SEQ ID. NO: 5, reference compound]",–,did not induce any significant degree of APC apoptosis,–,show rejection of the transplanted heart,2/3,2/3**,–,–,accelerates the rejection
